We go through two molecules from patent publication US10766952B2, “Methods for reducing migraine frequency in a subject in need thereof” (Beth Israel Deaconess Medical Center, Inc., priority 2017, dated 2020).

The test system of assay [1] is naïve central trigeminovascular neurons. Particulars: Storer et al., 2004; cited from earlier work.
The subject of assay [2] is CGRP activity (skin blood flow after saphenous nerve stimulation). Description: Skin vasodilatation induced by stimulation of rat saphenous nerve. To be noted: 400 nmol/kg i.v., 3-5 minutes before stimulation; FIG. 2A, 2B. The class given is in vivo. Here is the method:
To test antagonist activity of anti-CGRP antibodies, effect of the antibodies on skin vasodilatation by stimulation of rat saphenous nerve was tested using a rat model described previously. Escott et al., Br. J. Pharmacol. 110:772-776, 1993. In this rat model, electrical stimulation of saphenous nerve induces release of CGRP from nerve endings, resulting in an increase in skin blood flow. Blood flow in the foot skin of male Sprague Dawley rats (170-300 g, from Charles River Hollister) was measured after saphenous nerve stimulation. Rats were maintained under anesthesia with 2% isoflurane. Bretylium tosylate (30 mg/kg, administered i.v.) was given at the beginning of the experiment to minimize vasoconstriction due to the concomitant stimulation of sympathetic fibers of the saphenous nerve. Body temperature was maintained at 37° C. by the use of a rectal probe thermostatically connected to a temperature controlled heating pad. […]
For experiments shown in FIGS. […] Skin blood flow, measured as blood cell flux, was monitored with a laser Doppler flow meter. […]
For experiments shown in FIGS. 4A and 4B, saphenous nerve was exposed surgically before antibody administration. […] Skin blood flow, measured as blood cell flux, was monitored with a laser Doppler flow meter. […]

With `NCCCC[C@H](NC(=O)[C@@H](Cc1cc(Br)c(O)c(Br)c1)NC(=O)N1CCC(N2Cc3ccccc3NC2=O)CC1)C(=O)N1CCN(c2ccncc2)CC1` [BIBN4096BS], the “responses to electrical stimulation of the superior sagittal sinus and microiontophoretic administration of L-glutamate” value in assay [1] is on record as “inhibits”.
Consider “CGRP 8-37: positive control compound (vasodilatation antagonist)”, for which the “blood flow increase stimulated by electronic pulses on saphenous nerve” value in assay [2] is “inhibited”.
